# Measurements taken from US10456385B2 (priority 2011, dated 2019).
# System: Male ICR mice
# Test: Novel Object Recognition Test (NORT) in MK-801-induced amnesia mice
# Format: in vivo
# Conditions: Mus musculus, po, unit mg/kg from method, read-out: MED (dose at which NORT relative RI is given)
row,SMILES,minimal effective dose [mg/kg]
1,"O=C(NC1CN2CCC1CC2)c1ccc(=O)n(-c2nc3ccccc3s2)c1 (centres unmarked) [Example 33, N-(1-azabicyclo[2.2.2]octan-3-yl)-1-(1,3-benzothiazole-2-yl)-6-oxo-3-pyridinecarboxamide]",0.01
2,"O=C(N[C@H]1CN2CCC1CC2)c1ccc(=O)n(-c2nccs2)c1 [Example 2, N-[(3R)-1-azabicyclo[2.2.2]octan-3-yl)-6-oxo-1-(2-thiazolyl)-3-pyridinecarboxamide]",0.01
3,"Cc1cnc(-n2cc(C(=O)NC3CN4CCC3CC4)ccc2=O)s1 (centres unmarked) [Example 10, N-(1-azabicyclo[2.2.2]octan-3-yl)-1-(5-methyl-2-thiazolyl)-6-oxo-3-pyridinecarboxamide]",0.3
4,"Cc1cnc(-n2cc(C(=O)N[C@H]3CN4CCC3CC4)ccc2=O)s1 [Example 11, N-[(3R)-1-azabicyclo[2.2.2]octan-3-yl]-1-(5-methyl-2-thiazolyl)-6-oxo-3-pyridinecarboxamide]",0.03
5,"O=C(NC1CN2CCC1CC2)c1ccc(=O)n(-c2ncc(C3CCCCC3)s2)c1 (centres unmarked) [Example 24, N-(1-azabicyclo[2.2.2]octan-3-yl)-1-(5-cyclohexyl-2-thiazolyl)-6-oxo-3-pyridinecarboxamide]",0.03
6,"O=C(NC1CN2CCC1CC2)c1ccc(=O)n(-c2ncc(Cl)s2)c1 (centres unmarked) [Example 26, N-(1-azabicyclo[2.2.2]octan-3-yl)-1-(5-chloro-2-thiazolyl)-6-oxo-3-pyridinecarboxamide]",0.3
7,"CCc1cnc(-n2cc(C(=O)NC3CN4CCC3CC4)ccc2=O)s1 (centres unmarked) [Example 13, N-(1-azabicyclo[2.2.2]octan-3-yl)-1-(5-ethyl-2-thiazolyl)-6-oxo-3-pyridinecarboxamide]",0.3
8,"O=C(NC1CN2CCC1CC2)c1ccc(=O)n(-c2nccs2)c1 (centres unmarked) [Example 1, N-(1-azabicyclo[2.2.2]octan-3-yl)-6-oxo-1-(2-thiazolyl)-3-pyridinecarboxamide]",0.03
9,"CC(C)c1cnc(-n2cc(C(=O)NC3CN4CCC3CC4)ccc2=O)s1 (centres unmarked) [Example 17, N-(1-azabicyclo[2.2.2]octan-3-yl)-6-oxo-1-(5-propan-2-yl-2-thiazolyl)-3-pyridinecarboxamide]",0.3
10,"CCc1cnc(-n2cc(C(=O)N[C@H]3CN4CCC3CC4)ccc2=O)s1 [Example 14, N-[(3R)-1-azabicyclo[2.2.2]octan-3-yl]-1-(5-ethyl-2-thiazolyl)-6-oxo-3-pyridinecarboxamide]",0.03
11,"CC(C)(C)c1cnc(-n2cc(C(=O)NC3CN4CCC3CC4)ccc2=O)s1 (centres unmarked) [Example 20, N-(1-azabicyclo[2.2.2]octan-3-yl)-1-(5-tert-butyl-2-thiazolyl)-6-oxo-3-pyridinecarboxamide]",0.3
